US10730874B2 (Shire Human Genetic Therapies, Inc., priority 2018, dated 2020)

target: human activated kallikrein enzyme (plasma kallikrein) (Homo sapiens (Human), UniProt P03952); assay: Inhibition of human activated plasma kallikrein, fluorogenic peptide substrate assay, 500 pM enzyme format; type: biochemical; details: 500 pM activated kallikrein enzyme, 300 uM Pro-Phe-Arg-7-amido-4-methylcoumarin substrate, 30 min preincubation, 10 min at RT; read-out: Primary Dose Response Assay: Average EC50
Sequence (P03952 391-638): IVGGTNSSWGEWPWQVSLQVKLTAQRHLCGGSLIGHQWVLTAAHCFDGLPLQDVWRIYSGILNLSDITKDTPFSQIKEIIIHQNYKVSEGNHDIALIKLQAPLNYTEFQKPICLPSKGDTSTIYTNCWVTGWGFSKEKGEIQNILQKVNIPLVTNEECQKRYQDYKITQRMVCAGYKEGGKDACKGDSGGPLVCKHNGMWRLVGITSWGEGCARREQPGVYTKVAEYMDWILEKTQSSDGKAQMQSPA
Sequence (P03952 20-390 partner): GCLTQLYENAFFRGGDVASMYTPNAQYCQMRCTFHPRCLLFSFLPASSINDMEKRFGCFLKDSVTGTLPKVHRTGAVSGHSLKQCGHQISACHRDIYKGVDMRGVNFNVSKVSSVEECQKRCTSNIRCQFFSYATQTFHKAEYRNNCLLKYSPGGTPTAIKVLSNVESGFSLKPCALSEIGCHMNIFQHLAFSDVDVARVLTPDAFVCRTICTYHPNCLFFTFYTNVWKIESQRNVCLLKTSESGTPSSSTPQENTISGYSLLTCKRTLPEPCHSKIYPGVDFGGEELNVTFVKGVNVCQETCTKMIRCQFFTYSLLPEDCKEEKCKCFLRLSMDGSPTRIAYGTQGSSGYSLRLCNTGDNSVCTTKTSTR
Outline: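 Buffer 20 mM Tris pH 7.5, EDTA, NaCl, PEG-400, Triton X-100; 300 uM Pro-Phe-Arg-AMC; enzyme–inhibitor preincubation 30 min RT. Format one: 500 pM kallikrein, 10 min RT reaction; format two: 5 pM kallikrein, 18 h RT reaction. Fluorescence read at 460 nm (380 nm excitation).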

EC50 [nM]	SMILES
10 to 100	O=C(NCc1ncn2ccc(Cl)cc12)c1cnn(Cc2cc3ncc(C4CC4)cc3[nH]2)c1 [Example I-84, N-((7-chloroimidazo[1,5-a]pyridin-1-yl)methyl)-1-((6-cyclopropyl-1H-pyrrolo[3,2-b]pyridin-2-yl)methyl)-1H-pyrazole-4-carboxamide]
1 to 10	Nc1c(C2CC2)ccc2nc(Cn3cc(C(=O)NCc4ncn5ccc(Cl)cc45)cn3)cn12 [Example I-88, 1-((5-amino-6-cyclopropylimidazo[1,2-a]pyridin-2-yl)methyl)-N-((7-chloroimidazo[1,5-a]pyridin-1-yl)methyl)-1H-pyrazole-4-carboxamide]
< 1	[2H]C([2H])(NC(=O)c1cnn(Cc2cn3cc(C4CC4)ccc3n2)c1)c1ncn2ccc(Cl)cc12 [Example I-90, N-((7-chloroimidazo[1,5-a]pyridin-1-yl)methyl-d2)-1-((6-cyclopropylimidazo[1,2-a]pyridin-2-yl)methyl)-1H-pyrazole-4-carboxamide]
10 to 100	COC(=O)c1ccc2nc(Cn3cc(C(=O)NCc4ncn5ccc(Cl)cc45)cn3)cn2c1 [Example I-91, methyl 2-((4-(((7-chloroimidazo[1,5-a]pyridin-1-yl)methyl)carbamoyl)-1H-pyrazol-1-yl)methyl)imidazo[1,2-a]pyridine-6-carboxylate]
< 1	CCOC(=O)CCc1nn(Cc2cn3cc(C4CC4)ccc3n2)cc1C(=O)NCc1ncn2ccc(Cl)cc12 [Example I-93, ethyl 3-(4-(((7-chloroimidazo[1,5-a]pyridin-1-yl)methyl)carbamoyl)-1-((6-cyclopropylimidazo[1,2-a]pyridin-2-yl)methyl)-1H-pyrazol-3-yl)propanoate]
10 to 100	O=C(NCCc1ncn2ccc(Cl)cc12)c1cnn(Cc2cn3cc(C4CC4)ccc3n2)c1 [Example I-94, N-(2-(7-chloroimidazo[1,5-a]pyridin-1-yl)ethyl)-1-((6-cyclopropylimidazo[1,2-a]pyridin-2-yl)methyl)-1H-pyrazole-4-carboxamide]
> 2000	O=C(O)c1ccc2nc(Cn3cc(C(=O)NCc4ncn5ccc(Cl)cc45)cn3)cn2c1 [Example I-96, 2-((4-(((7-chloroimidazo[1,5-a]pyridin-1-yl)methyl)carbamoyl)-1H-pyrazol-1-yl)methyl)imidazo[1,2-a]pyridine-6-carboxylic acid]
< 1	C#Cc1ccn2cnc(CNC(=O)c3cnn(Cc4cn5nc(C6CC6)ccc5n4)c3)c2c1 [Example I-98, 1-((6-cyclopropylimidazo[1,2-b]pyridazin-2-yl)methyl)-N-((7-ethynylimidazo[1,5-a]pyridin-1-yl)methyl)-1H-pyrazole-4-carboxamide]
< 1	CCOC(=O)C=Cc1cc(C2CC2)cn2cc(Cn3cc(C(=O)NCc4ncn5ccc(Cl)cc45)cn3)nc12 [Example I-100a, ethyl 3-(2-((4-(((7-chloroimidazo[1,5-a]pyridin-1-yl)methyl)carbamoyl)-1H-pyrazol-1-yl)methyl)-6-cyclopropylimidazo[1,2-a]pyridin-8-yl)acrylate]
< 1	CCOC(=O)CCc1cc(C2CC2)cn2cc(Cn3cc(C(=O)NCc4ncn5ccc(Cl)cc45)cn3)nc12 [Example I-100b, ethyl 3-(2-((4-(((7-chloroimidazo[1,5-a]pyridin-1-yl)methyl)carbamoyl)-1H-pyrazol-1-yl)methyl)-6-cyclopropylimidazo[1,2-a]pyridin-8-yl)propanoate]
< 1	O=C(O)CCc1cc(C2CC2)cn2cc(Cn3cc(C(=O)NCc4ncn5ccc(Cl)cc45)cn3)nc12 [Example I-100c, 3-(2-((4-(((7-chloroimidazo[1,5-a]pyridin-1-yl)methyl)carbamoyl)-1H-pyrazol-1-yl)methyl)-6-cyclopropylimidazo[1,2-a]pyridin-8-yl)propanoic acid]
< 1	O=C(NCc1ncn2ccc(Cl)cc12)c1cnn(Cc2cn3cc(C4CC4)cc(CN4CCOCC4)c3n2)c1 [Example I-101, N-((7-chloroimidazo[1,5-a]pyridin-1-yl)methyl)-1-((6-cyclopropyl-8-(morpholinomethyl)imidazo[1,2-a]pyridin-2-yl)methyl)-1H-pyrazole-4-carboxamide]
< 1	O=C(NCc1ncn2ccc(Cl)cc12)c1cn(Cc2cn3cc(C4CC4)ccc3n2)nc1C1COC1 [Example I-102, N-((7-chloroimidazo[1,5-a]pyridin-1-yl)methyl)-1-((6-cyclopropylimidazo[1,2-a]pyridin-2-yl)methyl)-3-(oxetan-3-yl)-1H-pyrazole-4-carboxamide]
< 1	COCCOc1cc(C2CC2)cn2cc(Cn3cc(C(=O)NCc4ncn5ccc(Cl)cc45)cn3)nc12 [Example I-103, N-((7-chloroimidazo[1,5-a]pyridin-1-yl)methyl)-1-((6-cyclopropyl-8-(2-methoxyethoxy)imidazo[1,2-a]pyridin-2-yl)methyl)-1H-pyrazole-4-carboxamide]
< 1	CC(C)(O)c1cc(C2CC2)cn2cc(Cn3cc(C(=O)NCc4ncn5ccc(Cl)cc45)cn3)nc12 [Example I-104b, N-((7-chloroimidazo[1,5-a]pyridin-1-yl)methyl)-1-((6-cyclopropyl-8-(2-hydroxypropan-2-yl)imidazo[1,2-a]pyridin-2-yl)methyl)-1H-pyrazole-4-carboxamide]
< 1	O=C(O)Cc1cc(C2CC2)cn2cc(Cn3cc(C(=O)NCc4ncn5ccc(Br)c(F)c45)cn3)nc12 [Example I-106, 2-(2-((4-(((7-bromo-8-fluoroimidazo[1,5-a]pyridin-1-yl)methyl)carbamoyl)-1H-pyrazol-1-yl)methyl)-6-cyclopropylimidazo[1,2-a]pyridin-8-yl)acetic acid]
< 1	CC(C)(O)Cc1cc(C2CC2)cn2cc(Cn3cc(C(=O)NCc4ncn5ccc(Cl)cc45)cn3)nc12 [Example I-109, N-((7-chloroimidazo[1,5-a]pyridin-1-yl)methyl)-1-((6-cyclopropyl-8-(2-hydroxy-2-methylpropyl)imidazo[1,2-a]pyridin-2-yl)methyl)-1H-pyrazole-4-carboxamide]

SMILES	EC50 [nM]
O=C(NCc1ncn2ccc(Br)cc12)c1cn(Cc2cn3cc(C4CC4)ccc3n2)nc1C1CC1 [Example I-85, N-((7-bromoimidazo[1,5-a]pyridin-1-yl)methyl)-3-cyclopropyl-1-((6-cyclopropylimidazo[1,2-a]pyridin-2-yl)methyl)-1H-pyrazole-4-carboxamide]	< 1
O=C(O)Cc1cc(C2CC2)cn2cc(Cn3cc(C(=O)NCc4ncn5ccc(Cl)cc45)cn3)nc12 [Example I-86, 2-(2-((4-(((7-chloroimidazo[1,5-a]pyridin-1-yl)methyl)carbamoyl)-1H-pyrazol-1-yl)methyl)-6-cyclopropylimidazo[1,2-a]pyridin-8-yl)acetic acid]	< 1
O=C(NCc1ncn2ccc(Cl)cc12)c1cnn(Cc2cn3cc(C4CC4)cc(CCO)c3n2)c1 [Example I-87, N-((7-chloroimidazo[1,5-a]pyridin-1-yl)methyl)-1-((6-cyclopropyl-8-(hydroxyethyl)imidazo[1,2-a]pyridin-2-yl)methyl)-1H-pyrazole-4-carboxamide]	< 1
Nc1ccc(C2CC2)c2nc(Cn3cc(C(=O)NCc4ncn5ccc(Cl)cc45)cn3)cn12 [Example I-89, 1-((5-amino-8-cyclopropylimidazo[1,2-a]pyridin-2-yl)methyl)-N-((7-chloroimidazo[1,5-a]pyridin-1-yl)methyl)-1H-pyrazole-4-carboxamide]	100 to 2000
N#Cc1cc(C2CC2)cn2cc(Cn3cc(C(=O)NCc4ncn5ccc(Cl)cc45)cn3)nc12 [Example I-92, N-((7-chloroimidazo[1,5-a]pyridin-1-yl)methyl)-1-((8-cyano-6-cyclopropylimidazo[1,2-a]pyridin-2-yl)methyl)-1H-pyrazole-4-carboxamide]	< 1
O=C(NCc1ncn2ccc(Br)cc12)c1cn(Cc2cn3cc(C4CC4)ccc3n2)nc1C(F)F [Example I-95, N-((7-bromoimidazo[1,5-a]pyridin-1-yl)methyl)-1-((6-cyclopropylimidazo[1,2-a]pyridin-2-yl)methyl)-3-(difluoromethyl)-1H-pyrazole-4-carboxamide]	1 to 10
O=C(NCc1ncn2ccc(Cl)cc12)c1cn(Cc2cn3cc(C4CC4)ccc3n2)nc1C(F)F [Example I-99, N-((7-chloroimidazo[1,5-a]pyridin-1-yl)methyl)-1-((6-cyclopropylimidazo[1,2-a]pyridin-2-yl)methyl)-3-(difluoromethyl)-1H-pyrazole-4-carboxamide]	< 1
CC(=O)c1cc(C2CC2)cn2cc(Cn3cc(C(=O)NCc4ncn5ccc(Cl)cc45)cn3)nc12 [Example I-104a, 1-((8-acetyl-6-cyclopropylimidazo[1,2-a]pyridin-2-yl)methyl)-N-((7-chloroimidazo[1,5-a]pyridin-1-yl)methyl)-1H-pyrazole-4-carboxamide]	< 1
CCOC(=O)Cc1cc(C2CC2)cn2cc(Cn3cc(C(=O)NCc4ncn5ccc(Br)c(F)c45)cn3)nc12 [Example I-105, ethyl 2-(2-((4-(((7-bromo-8-fluoroimidazo[1,5-a]pyridin-1-yl)methyl)carbamoyl)-1H-pyrazol-1-yl)methyl)-6-cyclopropylimidazo[1,2-a]pyridin-8-yl)acetate]	< 1
O=C(NCc1ncn2ccc(Cl)cc12)c1cnn(Cc2cn3cc(C4CC4)cc(CCCO)c3n2)c1 [Example I-107, N-((7-chloroimidazo[1,5-a]pyridin-1-yl)methyl)-1-((6-cyclopropyl-8-(3-hydroxypropyl)imidazo[1,2-a]pyridin-2-yl)methyl)-1H-pyrazole-4-carboxamide]	< 1
O=C(NCc1ncn2ccc(Cl)cc12)c1nnn(Cc2cn3cc(C4CC4)ccc3n2)n1 [Example I-110, N-((7-chloroimidazo[1,5-a]pyridin-1-yl)methyl)-2-((6-cyclopropylimidazo[1,2-a]pyridin-2-yl)methyl)-2H-tetrazole-5-carboxamide]	< 1
